Columns and labels:
[1] = system: crabgrass (Digitaria sanguinalis L.); assay: Test Example 1: foliar treatment, growth inhibition rate, crabgrass; assay type: in vivo; settings: 31 g/ha active ingredient, visually observed 17th to 23rd day after application
Method in brief: (§1)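 Visual scoring of growth inhibition, 0% (untreated) to 100% (complete kill), on days 17–23 following post-emergence spray of formulated compound in water (500 L/ha, 0.1 vol % spreader); plants treated at set leaf stages, e.g. corn 2.0–3.5, wheat 1.7–3.4.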

[2] = system: redroot pigweed (Amaranthus retroflexus L.); assay: Test Example 1: foliar treatment, growth inhibition rate, redroot pigweed; assay type: in vivo; settings: 31 g/ha active ingredient, visually observed 17th to 23rd day after application
Method in brief: as §1

[3] = system: rice (Oryza sativa L.); assay: Test Example 1: foliar treatment, growth inhibition rate, rice; assay type: in vivo; settings: 31 g/ha active ingredient, visually observed 17th to 23rd day after application
Method in brief: (§2)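 Potted upland soil; compounds as wettable powders or emulsifiable concentrates diluted in water at 500 L/ha plus 0.1 vol % spreader, foliar-sprayed at defined leaf stages (rice 1.0–2.5, wheat 1.7–3.4, corn 2.0–3.5, greenfoxtail 1.0–3.0). Growth inhibition (0–100%) scored visually 17–23 days after application.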

[4] = system: rice; assay: Test Example 2: soil application on the day after sowing, growth inhibition rate, rice; assay type: in vivo, Oryza sativa L.; settings: 250 g/ha active ingredient, observed on 19th to 24th day
Method in brief: (§3)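 Upland soil pots sown with crop and weed seeds; next day wettable powder or emulsifiable concentrate at prescribed active-ingredient amounts, diluted to 500 L/ha water, sprayed onto soil. Growth inhibition scored visually 19–24 days later, 0 (as untreated) to 100% (complete kill).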

[5] = system: velvetleaf; assay: Test Example 2: soil application on the day after sowing, growth inhibition rate, velvetleaf; assay type: in vivo, Abutilon theophrasti MEDIC.; settings: 250 g/ha active ingredient, observed on 19th to 24th day
Method in brief: as §3

[6] = system: greenfoxtail (Setaria viridis L.); assay: Test Example 1: foliar treatment, growth inhibition rate, greenfoxtail; assay type: in vivo; settings: 31 g/ha active ingredient, visually observed 17th to 23rd day after application
Method in brief: as §2

[7] = system: barnyardgrass; assay: Test Example 2: soil application on the day after sowing, growth inhibition rate, barnyardgrass; assay type: in vivo, Echinochloa crus-galli L.; settings: 250 g/ha active ingredient, observed on 19th to 24th day
Method in brief: as §3

[8] = system: velvetleaf (Abutilon theophrasti MEDIC.); assay: Test Example 1: foliar treatment, growth inhibition rate, velvetleaf; assay type: in vivo; settings: 31 g/ha active ingredient, visually observed 17th to 23rd day after application
Method in brief: (§4)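 Plants grown in upland soil in pots were sprayed on the foliage at set leaf stages (corn 2.0–3.5, greenfoxtail 1.0–3.0, rice 1.0–2.5, wheat 1.7–3.4 leaves) with wettable powder or emulsifiable concentrate formulations diluted in water at 500 L/ha plus 0.1 vol % spreader. Growth inhibition was scored visually 17–23 days later.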

[9] = system: corn (Zea mays L.); assay: Test Example 1: foliar treatment, growth inhibition rate, corn; assay type: in vivo; settings: 31 g/ha active ingredient, visually observed 17th to 23rd day after application
Method in brief: as §2

[10] = system: soybean; assay: Test Example 2: soil application on the day after sowing, growth inhibition rate, soybean; assay type: in vivo, Glycine max Merr.; settings: 250 g/ha active ingredient, observed on 19th to 24th day
Method in brief: as §3

[11] = system: crabgrass; assay: Test Example 2: soil application on the day after sowing, growth inhibition rate, crabgrass; assay type: in vivo, Digitaria sanguinalis L.; settings: 250 g/ha active ingredient, observed on 19th to 24th day
Method in brief: as §3

[12] = system: soybean (Glycine max Merr.); assay: Test Example 1: foliar treatment, growth inhibition rate, soybean; assay type: in vivo; settings: 31 g/ha active ingredient, visually observed 17th to 23rd day after application
Method in brief: as §1

[13] = system: wheat; assay: Test Example 2: soil application on the day after sowing, growth inhibition rate, wheat; assay type: in vivo, Triticum spp.; settings: 250 g/ha active ingredient, observed on 19th to 24th day
Method in brief: as §3

[14] = system: barnyardgrass (Echinochloa crus-galli L.); assay: Test Example 1: foliar treatment, growth inhibition rate, barnyardgrass; assay type: in vivo; settings: 31 g/ha active ingredient, visually observed 17th to 23rd day after application
Method in brief: as §4

[15] = system: wheat (Triticum spp.); assay: Test Example 1: foliar treatment, growth inhibition rate, wheat; assay type: in vivo; settings: 31 g/ha active ingredient, visually observed 17th to 23rd day after application
Method in brief: as §2

[16] = system: prickly sida; assay: Test Example 2: soil application on the day after sowing, growth inhibition rate, prickly sida; assay type: in vivo, Sida spinosa L.; settings: 250 g/ha active ingredient, observed on 19th to 24th day
Method in brief: as §3

[17] = system: redroot pigweed; assay: Test Example 2: soil application on the day after sowing, growth inhibition rate, redroot pigweed; assay type: in vivo, Amaranthus retroflexus L.; settings: 250 g/ha active ingredient, observed on 19th to 24th day
Method in brief: as §3

[18] = system: greenfoxtail; assay: Test Example 2: soil application on the day after sowing, growth inhibition rate, greenfoxtail; assay type: in vivo, Setaria viridis L.; settings: 250 g/ha active ingredient, observed on 19th to 24th day
Method in brief: as §3

[19] = system: corn; assay: Test Example 2: soil application on the day after sowing, growth inhibition rate, corn; assay type: in vivo, Zea mays L.; settings: 250 g/ha active ingredient, observed on 19th to 24th day
Method in brief: as §3

[20] = system: prickly sida (Sida spinosa L.); assay: Test Example 1: foliar treatment, growth inhibition rate, prickly sida; assay type: in vivo; settings: 31 g/ha active ingredient, visually observed 17th to 23rd day after application
Method in brief: as §1

Structure (SMILES) | Growth inhibition rate (%) Crabgrass [1] | Growth inhibition rate (%) redroot pigweed [2] | Growth inhibition rate (%) Rice [3] | Growth inhibition rate (%) Rice [4] | Growth inhibition rate (%) Velvetleaf [5] | Growth inhibition rate (%) Greenfoxtail [6] | Growth inhibition rate (%) Barnyardgrass [7] | Growth inhibition rate (%) Velvetleaf [8] | Growth inhibition rate (%) Corn [9] | Growth inhibition rate (%) Soybean [10] | Growth inhibition rate (%) Crabgrass [11] | Growth inhibition rate (%) Soybean [12] | Growth inhibition rate (%) Wheat [13] | Growth inhibition rate (%) Barnyardgrass [14] | Growth inhibition rate (%) Wheat [15] | Growth inhibition rate (%) Prickly sida [16] | Growth inhibition rate (%) redroot pigweed [17] | Growth inhibition rate (%) Greenfoxtail [18] | Growth inhibition rate (%) Corn [19] | Growth inhibition rate (%) Prickly sida [20]
C#CCOc1c(S(C)(=O)=O)ccc(C(=O)c2cnn(C)c2OC(=O)SCC)c1C [compound 222] | 70% | 100% | 70% | 90% | 80% | 80% | 95% | 60% | 0% | 0% | 100% | 100% | 0% | 90% | 0% | 50% | 100% | 80% | 0% | 30%
CCCOc1c(S(C)(=O)=O)ccc(C(=O)c2cnn(CC)c2OC(=O)SCC)c1C [compound 67] | 98% | 95% | 60% | 60% | 60% | 100% | 60% | 90% | 10% | 20% | 70% | 90% | 0% | 95% | 10% | 70% | 50% | 40% | 0% | 60%
CCCSC(=O)Oc1c(C(=O)c2ccc(S(C)(=O)=O)c(OCCOC)c2C)cnn1C [compound 219] | 100% | 100% | 80% | 95% | 100% | 100% | 100% | 100% | 0% | 0% | 100% | 100% | 0% | 100% | 0% | 80% | 100% | 100% | 0% | 70%
CCSC(=O)Oc1c(C(=O)c2ccc(S(C)(=O)=O)c(COCC(F)(F)F)c2Cl)cnn1C [compound 70] | 100% | 100% | 70% | 40% | 70% | 100% | 70% | 80% | 30% | 0% | 80% | 80% | 0% | 100% | 0% | 65% | 100% | 50% | 0% | 70%
C=CCSC(=O)Oc1c(C(=O)c2ccc(S(C)(=O)=O)c(C(=O)OC)c2C)cnn1CC [compound 99] | 100% | 98% | 95% | 100% | 100% | 100% | 100% | 98% | 50% | 40% | 100% | 98% | 0% | 98% | 60% | 100% | 95% | 100% | 0% | 100%
CCSC(=O)Oc1c(C(=O)c2ccc(S(C)(=O)=O)c(COC3CCOC3)c2C)cnn1C (centres unmarked) [compound 223] | 100% | 90% | 70% | 40% | 80% | 90% | 70% | 95% | 0% | 0% | 100% | 100% | 0% | 100% | 0% | 60% | 90% | 70% | 0% | 70%
CCn1ncc(C(=O)c2ccc(S(C)(=O)=O)c(C(=O)OC)c2C)c1OC(=O)SCc1ccccc1 [compound 93] | 80% | 98% | 70% | 90% | 65% | 95% | 95% | 80% | 30% | 0% | 90% | 80% | 0% | 95% | 0% | 75% | 100% | 100% | 0% | 70%
